Calls of active or inactive are those of the source.
Experiments:
BJ [1] = assay: cytotoxicity toward BJ-TERT fibroblasts, dose response, cell-based, RAS-independent, luminescence (AID 1933); type: functional; conditions: Homo sapiens
BJ [2] = assay: cells; type: functional, cell-based; conditions: Homo sapiens
[3] = cytotoxicity toward DRD oncogenic fibroblasts, dose response, cell-based, non-viral oncogenic, luminescence (AID 1934); type: functional; conditions: Homo sapiens
BJ [4] = assay: cytotoxicity toward BJ-TERT-LT-ST fibroblasts, dose response, cell-based, RAS-independent, luminescence (AID 1935); type: functional; conditions: Homo sapiens;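 further: BJ fibroblasts immortalized with TERT plus LT and ST oncogenes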
[5] = Luminescent dose response cell-based high throughput screening assay for inhibitors of the Janus kinase 2 mutant JAK2V617F. [Related pubchem assays: 1446 (Primary screen.), 1521 (Confirmation assay.), 1486 (Counter screen.)]; type: functional
[6] = biological target: Dual specificity tyrosine-phosphorylation-regulated kinase 1A (Rattus norvegicus, UniProt Q63470); type: biochemical, Homo sapiens
[7] = biological target: Mitogen-activated protein kinase 10 (Homo sapiens, UniProt P53779); assay: Dose response biochemical screening assay for inhibitors of c-Jun N-Terminal Kinase 3 (JNK3). [Related pubchem assays: 746 ]
[8] = biological target: T1, Endoplasmic reticulum aminopeptidase 1 (Homo sapiens, UniProt Q9NZ08); assay: ERAP1 enzyme inhibitors, dose response, biochemical, fluorescence plate reader, dry powder (AID 1117292); type: functional
[9] = biological target: T1, Endoplasmic reticulum aminopeptidase 1; assay: ERAP1 aminopeptidase inhibitors, dose response, biochemical, cherry-pick, set 2, plate reader (AID 743314)
[10] = cytotoxicity toward HT-29 cells – cell-based, CellTiter-Glo luminescence, IC50, dose response (AID 1117330); type: functional
[11] = SNU-C1 cell viability reduction, dose response, CellTiter-Glo luminescence (AID 1117323); type: functional, cell-based
[12] = CellTiter-Glo luminescent dose response of DLD-1 viability loss (AID 1117352); type: functional
[13] = HeLa 2N DNA content increase, dose response, cell-based, IC50 (AID 1117349); type: functional
[14] = HCT116 cell viability decrease, GSK3B pretreatment – CellTiter-Glo, IC50, dose response (AID 1117339); type: functional; conditions: HCT-116
[15] = cytotoxicity toward HCT116 cells – cell-based, CellTiter-Glo luminescence, IC50, dose response (AID 1117332); type: functional; conditions: HCT-116
[16] = RKO cell viability reduction, dose response, CellTiter-Glo luminescence (AID 1117322); type: functional
[17] = Concentration-dependent survival of SW480 colon cancer line, luminescence detection with CellTiter-Glo, half-maximal inhibitory concentration (AID 1117338); type: functional
[18] = HeLa 4N DNA content increase, dose response, cell-based, IC50 (AID 1117351); type: functional
HSP90 = HSP90 (Plasmodium falciparum 3D7, UniProt Q8IL32); type: functional, organism-based
[19] = cytotoxicity toward Colo320 cells – cell-based, CellTiter-Glo luminescence, IC50, dose response (AID 1117334); type: functional; conditions: COLO 320
Vero [20] = assay: cells; type: functional, cell-based; conditions: Chlorocebus sabaeus
[21] = biological target: Heat shock protein HSP 90-alpha (Homo sapiens, UniProt P07900); type: functional, organism-based
Vero [22] = assay: cells; type: functional; conditions: Chlorocebus sabaeus
Large T antigen = Large T antigen (Simian virus 40, UniProt P03070); type: functional, Betapolyomavirus macacae;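 further: Confirmatory-stage PubChem screen for compounds that inhibit SV40 T antigen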
[23] = biological target: Eukaryotic translation initiation factor 4E (Mus musculus, UniProt P63073); assay: eIF4E–eIF4G protein interaction inhibitors, dose response, biochemical, TR-FRET (AID 855); type: functional;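 further: potency for disrupting eIF4E binding to eIF4GI seen as loss of FRET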
Hexokinase HKDC1 = biological target: T2, Hexokinase HKDC1 (Homo sapiens, UniProt Q2TB90); assay: HKDC1 hexokinase inhibitors, dose response, biochemical, W721R variant (AID 504729); type: functional
T2 sequence (Q2TB90 whole entry): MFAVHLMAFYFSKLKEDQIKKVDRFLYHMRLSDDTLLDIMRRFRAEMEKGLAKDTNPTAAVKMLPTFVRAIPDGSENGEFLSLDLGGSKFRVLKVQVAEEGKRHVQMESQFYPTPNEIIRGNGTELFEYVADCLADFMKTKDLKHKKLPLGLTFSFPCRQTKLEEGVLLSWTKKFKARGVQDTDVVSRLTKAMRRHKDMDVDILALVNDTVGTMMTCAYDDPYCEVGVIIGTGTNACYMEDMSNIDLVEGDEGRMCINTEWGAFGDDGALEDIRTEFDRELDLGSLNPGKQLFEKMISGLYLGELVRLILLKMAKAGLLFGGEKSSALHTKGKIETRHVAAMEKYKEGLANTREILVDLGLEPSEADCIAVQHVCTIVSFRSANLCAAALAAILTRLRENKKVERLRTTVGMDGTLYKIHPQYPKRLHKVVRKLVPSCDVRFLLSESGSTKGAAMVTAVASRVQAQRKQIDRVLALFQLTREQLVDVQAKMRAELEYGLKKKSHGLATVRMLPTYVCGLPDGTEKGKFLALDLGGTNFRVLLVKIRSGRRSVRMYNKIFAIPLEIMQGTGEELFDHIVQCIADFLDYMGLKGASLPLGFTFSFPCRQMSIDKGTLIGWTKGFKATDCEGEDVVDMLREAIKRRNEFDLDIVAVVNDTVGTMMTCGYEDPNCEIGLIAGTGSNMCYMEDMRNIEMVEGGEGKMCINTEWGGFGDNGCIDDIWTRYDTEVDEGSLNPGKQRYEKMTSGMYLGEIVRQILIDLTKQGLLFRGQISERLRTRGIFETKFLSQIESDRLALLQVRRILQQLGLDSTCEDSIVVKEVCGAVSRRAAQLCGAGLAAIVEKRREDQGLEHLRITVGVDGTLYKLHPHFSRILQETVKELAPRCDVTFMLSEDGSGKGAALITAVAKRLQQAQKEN

[24] = biological target: Induced myeloid leukemia cell differentiation protein Mcl-1 (Homo sapiens, UniProt Q07820); type: functional
Protein Tat = Protein Tat (Human immunodeficiency virus type 1 group M subtype B (isolate HXB2)(HIV-1), UniProt P04608); type: functional;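 further: tat binding to TAR RNA read out by fluorescence polarization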
Protein Tat, sequence (P04608 whole entry): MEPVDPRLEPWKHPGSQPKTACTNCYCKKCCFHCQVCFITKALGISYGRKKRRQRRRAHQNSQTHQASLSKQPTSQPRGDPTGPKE

T1 sequence (Q9NZ08 whole entry): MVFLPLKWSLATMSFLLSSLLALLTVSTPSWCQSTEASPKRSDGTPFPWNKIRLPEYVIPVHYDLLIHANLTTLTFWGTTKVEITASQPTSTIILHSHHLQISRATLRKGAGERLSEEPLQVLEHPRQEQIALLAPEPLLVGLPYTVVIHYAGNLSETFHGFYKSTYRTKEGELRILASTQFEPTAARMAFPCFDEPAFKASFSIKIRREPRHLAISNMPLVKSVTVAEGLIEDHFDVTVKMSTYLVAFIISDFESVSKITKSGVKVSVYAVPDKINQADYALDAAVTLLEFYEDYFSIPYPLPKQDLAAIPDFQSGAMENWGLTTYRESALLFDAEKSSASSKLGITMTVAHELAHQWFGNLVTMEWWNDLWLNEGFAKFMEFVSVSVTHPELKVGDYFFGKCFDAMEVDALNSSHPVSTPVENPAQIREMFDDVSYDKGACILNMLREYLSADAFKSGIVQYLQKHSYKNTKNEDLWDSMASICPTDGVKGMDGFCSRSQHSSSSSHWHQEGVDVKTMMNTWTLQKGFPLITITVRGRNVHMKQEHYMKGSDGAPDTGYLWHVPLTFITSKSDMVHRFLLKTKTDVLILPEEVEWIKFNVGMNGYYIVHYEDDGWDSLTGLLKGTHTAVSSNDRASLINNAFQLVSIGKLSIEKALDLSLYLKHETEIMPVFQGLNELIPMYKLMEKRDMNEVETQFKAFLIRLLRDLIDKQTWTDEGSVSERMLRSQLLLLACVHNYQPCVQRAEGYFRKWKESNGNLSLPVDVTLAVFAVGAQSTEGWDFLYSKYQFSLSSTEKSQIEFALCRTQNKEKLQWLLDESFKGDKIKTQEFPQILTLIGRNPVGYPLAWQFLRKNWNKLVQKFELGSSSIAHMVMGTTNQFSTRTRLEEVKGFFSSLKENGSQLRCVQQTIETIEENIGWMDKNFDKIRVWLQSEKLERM
Mitogen-activated protein kinase 10, sequence (P53779 whole entry): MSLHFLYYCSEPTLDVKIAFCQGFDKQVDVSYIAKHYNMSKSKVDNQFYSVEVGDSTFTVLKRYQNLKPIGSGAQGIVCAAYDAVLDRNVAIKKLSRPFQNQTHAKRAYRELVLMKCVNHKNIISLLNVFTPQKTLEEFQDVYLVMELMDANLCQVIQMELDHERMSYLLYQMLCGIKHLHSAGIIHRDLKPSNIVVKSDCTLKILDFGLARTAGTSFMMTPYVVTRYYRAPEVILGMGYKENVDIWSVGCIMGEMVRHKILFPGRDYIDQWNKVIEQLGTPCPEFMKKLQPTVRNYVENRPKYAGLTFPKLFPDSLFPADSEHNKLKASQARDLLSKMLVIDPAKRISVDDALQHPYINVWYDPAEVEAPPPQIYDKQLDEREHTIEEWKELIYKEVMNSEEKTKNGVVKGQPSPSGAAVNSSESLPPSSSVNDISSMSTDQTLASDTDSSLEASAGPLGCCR
HSP90, sequence (Q8IL32 whole entry): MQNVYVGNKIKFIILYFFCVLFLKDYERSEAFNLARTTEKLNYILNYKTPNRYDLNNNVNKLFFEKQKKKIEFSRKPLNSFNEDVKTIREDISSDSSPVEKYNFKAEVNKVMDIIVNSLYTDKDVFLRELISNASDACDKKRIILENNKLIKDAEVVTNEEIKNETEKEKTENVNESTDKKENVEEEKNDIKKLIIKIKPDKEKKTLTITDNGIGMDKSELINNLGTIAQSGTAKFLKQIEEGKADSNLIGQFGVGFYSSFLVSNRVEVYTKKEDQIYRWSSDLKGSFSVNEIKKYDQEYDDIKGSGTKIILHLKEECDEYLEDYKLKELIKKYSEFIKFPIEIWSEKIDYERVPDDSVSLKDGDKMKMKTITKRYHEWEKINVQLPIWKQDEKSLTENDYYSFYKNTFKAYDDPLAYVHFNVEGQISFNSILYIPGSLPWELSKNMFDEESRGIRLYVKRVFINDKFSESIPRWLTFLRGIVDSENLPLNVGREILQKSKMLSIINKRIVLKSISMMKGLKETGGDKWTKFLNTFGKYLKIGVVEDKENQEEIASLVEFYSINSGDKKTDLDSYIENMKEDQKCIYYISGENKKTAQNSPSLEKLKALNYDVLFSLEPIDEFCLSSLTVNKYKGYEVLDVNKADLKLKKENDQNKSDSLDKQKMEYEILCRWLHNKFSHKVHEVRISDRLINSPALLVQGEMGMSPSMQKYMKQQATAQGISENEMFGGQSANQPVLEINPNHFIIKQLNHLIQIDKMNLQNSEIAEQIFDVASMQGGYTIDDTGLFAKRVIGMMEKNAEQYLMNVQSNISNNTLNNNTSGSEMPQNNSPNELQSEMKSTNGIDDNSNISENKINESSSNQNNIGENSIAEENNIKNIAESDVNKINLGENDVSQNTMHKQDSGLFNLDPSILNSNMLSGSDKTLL
Eukaryotic translation initiation factor 4E, sequence (P63073 whole entry): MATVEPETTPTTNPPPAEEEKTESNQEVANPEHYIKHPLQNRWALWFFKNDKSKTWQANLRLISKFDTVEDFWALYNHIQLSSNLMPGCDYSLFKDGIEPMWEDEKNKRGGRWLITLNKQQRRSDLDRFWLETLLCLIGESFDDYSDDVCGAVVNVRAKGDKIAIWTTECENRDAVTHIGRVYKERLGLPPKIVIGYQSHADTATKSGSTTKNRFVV
Large T antigen, sequence (P03070 whole entry): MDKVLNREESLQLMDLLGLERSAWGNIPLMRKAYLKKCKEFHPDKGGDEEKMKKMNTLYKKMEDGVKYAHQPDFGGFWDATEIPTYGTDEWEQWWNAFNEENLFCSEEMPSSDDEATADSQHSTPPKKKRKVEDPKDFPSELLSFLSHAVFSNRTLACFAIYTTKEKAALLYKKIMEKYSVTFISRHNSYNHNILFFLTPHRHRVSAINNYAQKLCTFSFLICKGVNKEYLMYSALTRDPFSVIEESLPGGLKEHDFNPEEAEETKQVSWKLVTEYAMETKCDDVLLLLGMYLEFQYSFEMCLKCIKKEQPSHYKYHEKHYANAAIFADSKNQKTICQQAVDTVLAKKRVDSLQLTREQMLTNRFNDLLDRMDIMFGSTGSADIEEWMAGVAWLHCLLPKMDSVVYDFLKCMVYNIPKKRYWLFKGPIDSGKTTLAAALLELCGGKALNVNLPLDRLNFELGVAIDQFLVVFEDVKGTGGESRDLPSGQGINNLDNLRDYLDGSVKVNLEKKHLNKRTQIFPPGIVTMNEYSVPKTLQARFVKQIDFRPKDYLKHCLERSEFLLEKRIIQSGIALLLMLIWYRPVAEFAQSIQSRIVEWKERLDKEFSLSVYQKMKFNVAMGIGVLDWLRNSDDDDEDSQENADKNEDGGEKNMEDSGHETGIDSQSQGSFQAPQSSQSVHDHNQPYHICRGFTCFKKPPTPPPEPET
Induced myeloid leukemia cell differentiation protein Mcl-1, sequence (Q07820 whole entry): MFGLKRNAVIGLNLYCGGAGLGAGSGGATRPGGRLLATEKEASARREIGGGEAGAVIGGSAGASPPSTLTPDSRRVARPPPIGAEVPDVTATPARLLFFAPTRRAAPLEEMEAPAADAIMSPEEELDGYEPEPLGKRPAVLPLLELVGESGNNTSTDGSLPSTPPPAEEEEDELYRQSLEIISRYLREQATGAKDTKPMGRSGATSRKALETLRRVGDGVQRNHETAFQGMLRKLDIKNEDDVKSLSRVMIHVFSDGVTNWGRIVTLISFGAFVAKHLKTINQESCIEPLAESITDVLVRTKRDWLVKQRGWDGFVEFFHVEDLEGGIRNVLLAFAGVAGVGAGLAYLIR

COc1ccc(Nc2nc(N)nc(CCl)n2)cc1
EC50 (BJ [1]): 0.498 µM (inconclusive)
EC50 (BJ [2]): 3.57 µM (active)
EC50 [3]: 2.25 µM (active)
EC50 (BJ [4]): > 150 µM (inconclusive)
IC50 [5]: 1.45 µM (active)

C/C(=N/Cc1cccnc1)C1=C(O)c2ccccc2C1=O
AC50 [6]: 12.9 µM (active)
IC50 [7]: 20 µM (not active)

N=C(NCCc1c[nH]c2ccccc12)NS(=O)(=O)c1cc(F)ccc1F
AC50 [8]: 59.9 µM (active)
AC50 [9]: 6.09 µM (active)

CC(C)c1c(C(=O)Nc2ccccc2)c(-c2ccccc2)c(-c2ccc(F)cc2)n1CC[C@@H](O)C[C@@H](O)CC(=O)O [ATORVASTATIN CALCIUM]
IC50 [10]: > 20 µM (inactive)
IC50 [11]: > 20 µM (inactive)
IC50 [12]: > 20 µM (inactive)
IC50 [13]: > 10 µM (inactive)
IC50 [14]: 4.79 µM (active)
IC50 [15]: > 20 µM (inactive)
IC50 [16]: > 20 µM (inactive)
IC50 [17]: > 20 µM (inactive)
IC50 [18]: > 10 µM (inactive)

Oc1c(Br)cc(Br)c2cccnc12 [BROXYQUINOLINE]
IC50 [10]: 5.25 µM (inactive)
IC50 [11]: 0.366 µM (active)
AC50 (HSP90): 0.373 µM (active)
IC50 [19]: 0.114 µM (active)
IC50 [12]: 0.157 µM (active)
IC50 (Vero [20]): > 25 µM (active)
AC50 [21]: 0.7 µM (active)
CC50 (Vero [22]): 18.7 µM (active)
IC50 [14]: 0.183 µM (active)
IC50 [15]: 0.193 µM (active)
IC50 [16]: 0.163 µM (active)
IC50 [17]: 0.132 µM (active)

O=C1NC(=S)N(c2ccc(F)cc2)C(=O)/C1=C\c1ccoc1
IC50 (Large T antigen): 12.8 µM (active)
IC50 [23]: 50 µM (inactive)
IC50 (Hexokinase HKDC1): 10.7 µM (active)
IC50 [24]: 1.53 µM (active)
IC50 (Protein Tat): > 25 µM (active)
